According to ChEMBL document CHEMBL1130655, “Nonpeptide oxytocin antagonists: potent, orally bioavailable analogs of L-371,257 containing a 1-R-(pyridyl)ethyl ether terminus” (Bioorg Med Chem Lett, 1998):

Key:
Oxytocin receptor [1] = target: T1, Oxytocin receptor (Homo sapiens, UniProt P30559); test: Binding affinity against cloned human oxytocin receptor from human embryonic kidney cells; format: cell-based
T1 sequence (P30559 whole entry): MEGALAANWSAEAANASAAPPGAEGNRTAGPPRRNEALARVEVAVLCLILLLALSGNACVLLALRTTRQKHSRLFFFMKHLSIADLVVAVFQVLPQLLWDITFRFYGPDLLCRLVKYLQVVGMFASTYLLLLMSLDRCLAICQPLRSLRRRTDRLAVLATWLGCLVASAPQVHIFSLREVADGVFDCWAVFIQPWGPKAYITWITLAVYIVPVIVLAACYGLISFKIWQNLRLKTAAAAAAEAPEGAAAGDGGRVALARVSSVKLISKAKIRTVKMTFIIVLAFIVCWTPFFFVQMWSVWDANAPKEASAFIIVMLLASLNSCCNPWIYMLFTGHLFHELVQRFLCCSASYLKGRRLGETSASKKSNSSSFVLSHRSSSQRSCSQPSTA

[2] = Half life period after 3 mg/kg iv administration in rat; format: ADME, organism-based; design: dose 3 mg/kg, route intravenous; conditions: in vivo
Rattus norvegicus [3] = species on record: Rattus norvegicus; test: Compound was evaluated for its ability to antagonize rat OT-induced uterine contractile response in the vehicle treated group by 50%; format: functional
Oxytocin receptor [4] = target: T2, Oxytocin receptor (Rattus norvegicus, UniProt P70536); test: Binding affinity against oxytocin receptor (rOTr) in DES pretreated rat uterine
T2 sequence (P70536 whole entry): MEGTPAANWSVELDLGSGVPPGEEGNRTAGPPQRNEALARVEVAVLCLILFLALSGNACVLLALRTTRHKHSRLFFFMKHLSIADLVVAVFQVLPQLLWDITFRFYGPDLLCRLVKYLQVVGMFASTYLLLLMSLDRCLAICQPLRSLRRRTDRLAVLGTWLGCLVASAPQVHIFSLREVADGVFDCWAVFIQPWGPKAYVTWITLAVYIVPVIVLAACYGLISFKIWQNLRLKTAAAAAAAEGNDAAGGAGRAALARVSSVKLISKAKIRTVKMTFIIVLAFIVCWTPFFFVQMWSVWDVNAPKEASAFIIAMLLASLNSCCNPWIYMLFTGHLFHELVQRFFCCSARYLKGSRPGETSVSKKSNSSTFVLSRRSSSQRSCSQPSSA

[5] = Half life period after 3 mg/kg iv administration in the rat; format: ADME, organism-based; design: dose 3 mg/kg, route intravenous; conditions: in vivo
Rattus norvegicus [6] = test: Maximum plasma concentration after 20 mg/kg oral administration in rat; format: ADME, organism-based; design: dose 20 mg/kg, route oral; conditions: in vivo
[7] = Oral bioavailability in rat; format: ADME, organism-based; conditions: in vivo

Structure (SMILES)	Ki (Oxytocin receptor [1]) [µM]	AD50 (Rattus norvegicus [3]) [mg/kg]	further results
CCC(Oc1ccc(C(=O)N2CCC(N3C(=O)OCc4ccccc43)CC2)c(OC)c1)c1ccccc1 (stereo not given)	0.058		
COc1cc(OC(C)c2ccccc2)ccc1C(=O)N1CCC(N2C(=O)OCc3ccccc32)CC1 (stereo not given)			half-life [2]: < 30 min
CCOc1ccc(C(=O)N2CCC(N3C(=O)OCc4ccccc43)CC2)c(OC)c1	0.015		
COc1cc(OC(C)C)ccc1C(=O)N1CCC(N2C(=O)OCc3ccccc32)CC1	0.017		
COc1cc(OC(C)c2cccnc2)ccc1C(=O)N1CCC(N2C(=O)OCc3ccccc32)CC1 (stereo not given)		1.2	
COc1cc(O[C@H](C)c2cc[n+]([O-])cc2)c(F)cc1C(=O)N1CCC(N2C(=O)OCc3ccccc32)CC1	0.00734	0.78	Ki (Oxytocin receptor [4]): 0.0099 µM
COc1cc(OC2CCN(C(C)=O)CC2)ccc1C(=O)N1CCC(N2C(=O)OCc3ccccc32)CC1	0.0093	0.55	half-life [5]: ~30 min; Cmax (Rattus norvegicus [6]): 3.3 uM equiv; bioavailability [7]: 39%
COc1ccc(C(=O)N2CCC(N3C(=O)OCc4ccccc43)CC2)c(OC)c1	0.087		Ki (Oxytocin receptor [4]): 0.12 µM
